The source of these data is patent publication US12710419B2, “3D sensors for simultaneous detection of bioelectronic and biomechanical signals in tissue” (UNIVERSITY OF MASSACHUSETTS, priority 2022, dated 2026).

This test deals with cardiomyocytes. In words: Drug tests on cultured cardiomyocytes recorded with 3D nanotransistor biosensor (AP and mechanical signals). Type of test: cell-based, human. The note with it: for amplitude of AP / amplitude of broad peaks (mechanical signal): after adding drug, 20 μM, electrical recording. The procedure:
Human embryonic stem cell-derived cardiomyocytes (hESC-CMs), which are considered promising in vitro models of cardiac health and disease, were cultured on the device substrate.
As part of experimental trials, drug tests were performed to further reveal the potential of implementing the sensors in pharmacological and pathological studies on cells. Blebbistatin, an inhibitor of myosin essential for motile machinery, was used to suppress cell contraction, as shown in FIG. 3A.
Conversely, lidocaine, a Na+ channel blocker, was added to suppress Na+ influx which contributes mostly to extracellular AP, as shown in FIG. 3D.
A Ca^2+ dysfunctional model was also built by treating the cardiomyocytes with isradipine, a Ca^2+ channel blocker used for treating a wide variety of cardiovascular disorders, as shown in FIG. 3G and its inset.
Cardiomyocytes were differentiated from human embryonic stem cells (hESCs, WAe009-A, H9) and human induced pluripotent stem cells (hiPSCs, generated from human primary T cells using episomal reprogramming) following methods described previously. Briefly, both cell types were maintained in the 60 mm tissue culture dishes coated with 10 ug/mL Matrigel in DMEM-F12 (Gibco™) using Essential 8 medium (Gibco™) and sub-passaged every 3-4 days. During differentiation, cells were seeded in a 12-well plate for 2-3 days until confluency, then replaced with RPMI 1640 medium (Gibco™) plus 1% B27-insulin (Gibco™) and 8 μM CHIR99021 (Tocris Bioscience™) (day 0). After 24 h (day 1), the medium was changed to RPMI 1640 plus 1% B27-insulin. On day 3, day 5, and day 7, the medium was changed to RPMI 1640 plus 1% B27-insulin and 5 μM IWR-1-endo (Cayman Chemical), RPMI 1640 plus 1% B27-insulin, and RPMI 1640 plus 1% B27, respectively. The medium was then replaced with RPMI 1640 plus 1% B27 every other day. […] During days 10-15, cardiomyocytes were ready for experiments. The cells were rinsed with 1×DPBS to remove calcium and inhibit contraction, then incubated with 0.5 mL of 0.5 mM Trypsin-EDTA (Gibco™) for 5 mins in a 37° C. incubator to dissociate into single cells. The EDTA was then aspirated, and the cells were dissociated by gently pipetting with 2 mL RPMI 1640 plus 1% B27 using a 1 ml pipet tip. The cells were transferred to a 15 mL conical tube and centrifuged at 250 g for 3 minutes, then resuspended with 2 mL RPMI 1640 plus 1% B27 supplemented with 10% Fetal Bovine Serum (Gibco™) and 10 μM Y-27632 ROCK inhibitor (Tocris Bioscience™). The device substrate integrated with nanotransistors was sterilized by incubating in 70% ethanol solution (1 h) at room temperature and then UV-treated (1 h). The device was coated with 20 μg/mL Matrigel in RPMI 1640 for 1 h at 37° C. Cells were seeded on the device substrate at the density of 3-5×10^5/cm^2. The cardiomyocytes were maintained using RPMI 1640 plus 1% B27 by changing the medium daily. Electrical recordings were typically performed starting from day 5 after the cell seeding.
All in vitro electrical recordings were carried out at the ambient environment with an Au reference electrode.

Where [1] appears, read: treatment, concentration not given.

Take `Cc1cccc(CCN2CCC(C(=O)c3ccc(NS(C)(=O)=O)cc3)CC2)n1` [E-4031]: the “contractile frequency and amplitude” value under setting [1] was “fluctuations in contractile frequency and amplitude”.

Take `Cc1ccc2c(c1)C(=O)C1(O)CCN(c3ccccc3)C1=N2` (centres unmarked) [blebbistatin]: the “amplitude of AP” value was “maintained the similar level” and the “amplitude of broad peaks (mechanical signal)” value was “substantial decrease”. The “broad peaks (mechanical signal) after washing out” value (washing out blebbistatin) is listed as “restored the broad peaks”.

Regarding `COC(=O)C1=C(C)NC(C)=C(C(=O)OC(C)C)C1c1cccc2nonc12` (centres unmarked) [isradipine], under “isradipine treatment, 20 nM”, the AP result is given as “concurrent decrease”, the mechanical signal entry was “apparent suppression” and the “time to apparent suppression of mechanical signal” value is “about 100 seconds”. Also, the “mechanical and AP signals after washing out” value (washing out isradipine) is “restored both signals”.

With `CCN(CC)CC(=O)Nc1c(C)cccc1C` [lidocaine], the “amplitude of AP” value is on record as “prominent suppression” and the “amplitude of broad peaks (mechanical signal)” value was “no obvious effect”. The AP amplitude (after lidocaine 20 μM, before ~10 nS) is recorded as ~ 2 nS. Besides, the AP duration (after lidocaine 20 μM, before ~19 ms) was ~ 40 ms.

Regarding `NC[C@H](O)c1ccc(O)c(O)c1` [norepinephrine], under setting [1], the conduction pathway entry was “alteration of the conduction pathway” and the contractile frequency result is given as “increased contractile frequency”.
